The values that follow come from patent US20120095012A1, “TOLUIDINE SULFONAMIDES AND THEIR USE” (Elara Pharmaceuticals GmbH, priority 2008, published 2012).

The test system of experiment [1] is MCF-7 human breast adenocarcinoma cells; HRE-bla HCT116 cell line (colorectal carcinoma). The experiment is described as follows: Cell proliferation assay (ATPlite luminescence). It counts as cell-based. Particulars: Homo sapiens, ATPlite readout, cell line not given. The procedure:
MCF-7 human breast adenocarcinoma cells were obtained from ATCC (LGC Promochem). The CellSensor® HRE-bla HCT116 cell line (colorectal carcinoma) was obtained from Invitrogen.
Cells were grown under humidified 95% air, 5% CO2 at 37° C. in Dulbecco's modified Eagle's medium (DMEM: MCF-7) or McCoy's 5A medium (HRE-bla HCT116) supplemented with 10% fetal bovine serum (FBS), 100 U/ml penicillin and 100 μg/ml streptomycin, 2 mM L-glutamine, and blasticidin at 5 μg/ml as a selection marker (for the HRE-bla HCT116 cell line only).
Cell proliferation experiments were carried out in 96-well tissue culture plates with seeding of 2000 cells/well in 100 μl of the relevant medium. Cells were subsequently incubated under the conditions mentioned for 24 h prior to addition of compounds.
To determine the degree of inhibition of cell proliferation, cells were treated with ATPlite solution according to the manufacturer's instructions (PerkinElmer, ATPlite 1-step Luminescence ATP Detection Assay System) and luciferase readout measured on an Envision HTS multilabel plate reader (PerkinElmer) in luminescence mode according to established protocols. Raw data were imported into an ActivityBase database (IDBS, ID Business Solutions) and EC50 values calculated using the IDBS program ActivityBase XE.

Experiment [2] addresses T1, tubulin (from porcine brain) (Sus scrofa, UniProt P02550+P02554).
T1 construct: prepared in-house from porcine brain using a standard procedure involving cycles of polymerization/de-polymerization; from tissue; host or cells: porcine brain
Kind of experiment: Inhibition of in vitro tubulin polymerization (OD 340 nm, 90 min). Type of experiment: biochemical. The settings on record: final absorbance at 90 min vs vehicle control, read-out: tubulin inhib. (at 10 μM). The procedure:
To assess the degree of inhibition of in vitro tubulin polymerization, a tubulin solution (prepared in-house from porcine brain using a standard procedure involving cycles of polymerization/de-polymerization, (see Castoldi & Popov (2003) Protein Expr. Purif. 32(1): 83-88), was incubated with varying concentrations of compounds under polymerizing conditions and kinetic experiments performed to determine the amount of polymerization (as measured by changes in OD at 340 nm) taking place over a 90 min period.
Compound solutions were diluted in double-distilled water to yield final 10× solutions containing 5% DMSO. 5 μl solutions were then added to the wells on a 384-well clear-bottom plate (Corning #3711, Corning Inc.) in preparation for the addition of tubulin. The tubulin solution (19.6 mg/ml, in 80 mM K-PIPES [pH 6.8], 1 mM MgCl2, 1 mM EGTA) was re-suspended to a final concentration of 4 mg/ml with ice cold G-PEM buffer (80 mM PIPES [pH 6.8], 2 mM MgCl2, 0.5 mM EGTA, 10% glycerol, 1 mM GTP) and maintained on ice for at least 1 min. 50 μl was then added to the pre-dispensed compound solutions, the plate orbital shaken on a medium setting for 5s, and the first measurement begun immediately.
Experiments were carried out on a Safire^2 ™ monochromator (Tecan) preset to a stable temperature of 37° C.; the degree of polymerization was determined by measuring the absorbance of the solutions at 340 nm every minute over the 90 min cycle. Reported inhibition values were based on the final absorbance at 90 min and calculated with reference to a vehicle control (0.5% DMSO) using the minimum and maximum signals obtained for this sample.

Experiment [3] relates to HIF mediated transcription. The experiment is described as follows: Inhibition of activation of HIF mediated transcription under hypoxic conditions (CellSensor HRE-bla HCT-116 reporter, DFO-induced). It counts as cell-based. Particulars: Homo sapiens; HRE-bla HCT-116 reporter cells, deferoxamine-induced hypoxia, 24 h. The procedure: Inhibition of an activated HIF signaling response under chemically-induced hypoxic conditions due to compound treatment was determined using the CellSensor® […] HCT-116 stably transfected reporter cell line from Invitrogen according to the manufacturer's instructions. HIF is a transcriptional factor composed of the constitutively expressed HIF 1β subunit and one of three HIFα subunits (HIF1α, HIF2α, HIF3α). This assay is responsive towards HIFα activity in general. In one example, HIF-1, when stabilized by hypoxic conditions, upregulates several genes to promote cell survival in low-oxygen conditions. These include glycolysis enzymes, which allow ATP synthesis in an oxygen-independent manner, and vascular endothelial growth factor (VEGF), which promotes angiogenesis. HIF-1 acts by binding to HIF-responsive elements (HREs) in promoters that generally contain the sequence NCGTG.
Cells were maintained as described previously and seeded into 384-well, clear-bottom plates (Corning 3712) at 15000 cells/well in 32 μl assay medium (Opti-MEM [Invitrogen], 0.5% FBS, 100 U/ml penicillin, 100 μg/ml streptomycin, 0.1 mM non-essential amino acids [NEAA], 1 mM sodium pyruvate, 5 mM HEPES [pH 7.3]). Following a 2 h incubation period, compounds (4 μl) were subsequently added to the cells at 10× concentrations in 5% DMSO and incubated under normal conditions for 30 min. To induce hypoxic conditions, 4 μl of a 2 mM deferoxamine (DFO) solution was added to the cells followed by 24 h incubation under standard assay conditions (as described). Control wells included wells containing only medium (no cells) and wells treated with 0.5% DMSO instead of compound.
Prior to the readout, the Substrate Loading Solution was prepared as described in the manufacturer's protocol and 10 μl added to each well. Following a further 2 h incubation period at room temperature and in the dark, fluorescence was measured at two wavelengths (blue channel: ex. 409 nm, em. 460 nm; green channel: ex. 409 nm, em. 530 nm) on a PerkinElmer Envision HTS. For the analysis, the average signal of the cell-free wells at 460 nm and 530 nm was first subtracted from the blue and green channel data, respectively. The blue/green emission ratios were then calculated for each well, dividing the background-corrected blue emission values by the background-corrected green emission values. IC50 values were determined from these ratios using GraphPad Prism (Prism 5, GraphPad software, Inc.).

In general, EC50 refers to the concentration needed to bring the measured effect to its halfway point. The low end stands for higher potency in that assay, the high end for lower potency in that assay.

A value given as a limit tells only on which side of the number the result lay.

T1 sequence (P02550 whole entry): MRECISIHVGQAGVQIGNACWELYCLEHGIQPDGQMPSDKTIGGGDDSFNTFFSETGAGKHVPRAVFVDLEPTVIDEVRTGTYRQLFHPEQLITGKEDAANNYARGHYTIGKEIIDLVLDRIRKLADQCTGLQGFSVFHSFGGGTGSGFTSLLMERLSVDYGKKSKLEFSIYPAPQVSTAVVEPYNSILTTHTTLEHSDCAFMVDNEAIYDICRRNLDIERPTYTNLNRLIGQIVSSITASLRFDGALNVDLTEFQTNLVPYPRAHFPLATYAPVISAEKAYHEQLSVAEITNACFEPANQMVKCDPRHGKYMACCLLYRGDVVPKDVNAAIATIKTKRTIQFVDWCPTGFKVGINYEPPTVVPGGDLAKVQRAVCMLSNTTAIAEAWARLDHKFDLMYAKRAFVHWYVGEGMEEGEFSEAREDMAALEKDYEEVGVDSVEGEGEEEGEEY
T1 sequence (P02554 whole entry): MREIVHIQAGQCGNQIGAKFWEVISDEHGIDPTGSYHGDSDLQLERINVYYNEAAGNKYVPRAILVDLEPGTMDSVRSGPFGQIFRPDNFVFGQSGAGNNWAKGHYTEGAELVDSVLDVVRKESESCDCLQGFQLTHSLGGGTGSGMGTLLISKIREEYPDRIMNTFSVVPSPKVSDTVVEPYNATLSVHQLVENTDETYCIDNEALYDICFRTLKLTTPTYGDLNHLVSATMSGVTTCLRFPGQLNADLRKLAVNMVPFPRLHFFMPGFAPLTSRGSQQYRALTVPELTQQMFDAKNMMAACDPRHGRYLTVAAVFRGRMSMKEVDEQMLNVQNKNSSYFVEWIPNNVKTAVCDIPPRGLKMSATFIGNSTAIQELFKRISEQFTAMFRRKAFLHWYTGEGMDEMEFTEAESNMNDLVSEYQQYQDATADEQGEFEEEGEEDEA

Regarding `CCc1ccc(S(=O)(=O)Nc2cc(-c3ccc(C#N)s3)ccc2C)s1` [Example 1, 5-Ethyl-thiophene-2-sulfonic acid [5-(5-cyano-thiophen-2-yl)-2-methyl-phenyl]-amide], the EC50 in experiment [1] and in experiment [3] was below 0.5 µM in each case. For the same compound, the inhibition at 10 µM in experiment [2] lay within 20 to 50%.
With `COc1ccc(S(=O)(=O)Nc2cc(-c3ccc(C#N)s3)ccc2C)cn1` [Example 2, 6-Methoxy-pyridine-3-sulfonic acid [5-(5-cyano-thiophen-2-yl)-2-methyl-phenyl]-amide], the EC50 in experiment [1] and in experiment [3] was below 0.5 µM in each case. The inhibition at 10 µM in experiment [2] is below 20%.
`Cc1ccc(S(=O)(=O)Nc2cc(-c3ccc(C#N)s3)ccc2C)s1` [Example 3, 5-Methyl-thiophene-2-sulfonic acid [5-(5-cyano-thiophen-2-yl)-2-methyl-phenyl]-amide] yielded a 50% effective concentration (EC50) in experiment [1] below 0.5 µM. The inhibition at 10 µM in experiment [2] is below 20%.
